{"source": "patent US20160279190A1", "about": "“MODULATION OF AXON DEGENERATION” (GENENTECH, INC., priority 2008, published 2016)", "key": {"[1]": {"system": "CaMKK", "conditions": "CaMKK activity after ionomycin stimulation, transfected HeLa cells; published source (footnote e, cell marked c); read-out: Cellular IC50; cited from earlier work"}, "[2]": {"system": "DRGs", "test": "anti-NGF antibody (NGF withdrawal) screen for inhibitors of neuron or axon degeneration", "format": "cell-based, mouse", "conditions": "inhibitor 100 μM or 10 μM added 1 hour before 25 μg/ml anti-NGF antibodies; 20 hours; actin staining", "description": "The anti-NGF antibody model described above in Example 1 was used in a screen for inhibitors of neuron or axon degeneration. A library of more than 400 small molecules (Tocris Bioscience) was tested to see which, if any, modulate degeneration observed in the presence of anti-NGF antibodies.\nMouse E13.5 embryos were dissected and placed into L15 medium (Invitrogen). The spinal cord was dissected out from the embryos with DRGs attached. The spinal cords with DRGs attached were placed into L15 medium+5% goat serum (Gibco) on ice. The DRGs were removed using a tungsten needle and the remaining spinal cord was disposed of. Eight well slides were filled with N3-F12 solution (23 ml Ham's F12, 1 ml N3 supplement, and 1 ml 1 M glucose) to which was added 25 ng/ml NGF (Roche). (N3 supplement was made by dilution of N3 100× concentrate, which was made by mixing the following ingredients, in the following order: 5.0 ml Hank's buffered saline solution (HBSS; Ca, Mg free; Invitrogen), 1.0 ml bovine serum albumin (10 mg/ml in HBSS=150 μm), 2.0 ml Transferrin (T1147-1G, human, 100 mg/ml in HBSS=1.1 mM), 1.0 ml sodium selenite (S9133-1MG, 0.01 mg/ml in HBSS=58 μM), 0.4 ml putrescine dihydrochloride (P5780-5G, 80 mg/ml in HBSS=500 mM), 0.2 ml progesterone (P8783-5G, 0.125 mg/ml in absolute ethanol=400 μM), 0.02 ml corticosterone (C2505-500MG, 2 mg/ml in absolute ethanol=5.8 mM), 0.1 ml triiodothyonine, sodium salt (T6397-100MG, 0.2 mg/ml in 0.01 N NaOH=300 μM), 0.4 ml insulin (16634-250MG, bovine pancreas, 241 U/mg, 25 mg/ml in 20 mM HCl=4.4 mM), for a total volume of 10.02 ml (can be stored at −20° C.). An N3 supplement stock was made by combining the following: 10 ml Pen/Strep (100×, Gibco), 10 ml glutamine (200 mM, Gibco), 10 ml MEM vitamins (100×, Gibco), 10 ml N3 concentrate (100×, see above), for a total volume of 40 ml. The mixture was filter sterilized using a 0.22 μm filter, and 1-2 ml aliquots were stored at −20° C.).\nThe DRGs were sectioned into halves, and placed in the center of each well of an 8-chamber slide (BD Biocoat PDL/Laminin coated glass, Becton Dickinson). The DRGs were permitted to attach to the slide at room temperature for 5-10 minutes, followed by an overnight incubation at 37° C. Inhibitors of choice were added at a concentration of 100 μM (top row) or 10 μM (bottom row) 1 hour before adding anti-NGF antibodies. The anti-NGF antibodies were added to the right half of the slide (4 wells) at a concentration of 25 μg/ml. After incubation for 20 hours at 37° C., the slides were fixed with 30% sucrose/8% paraformaldehyde (PFA) by adding 250 μl of the fix solution directly to the 250 μl of culture medium. (To make the 30% sucrose/8% PFA solution, the following ingredients were added to a 600 ml beaker including a stir bar: 250 ml 16% PFA (cat#15710-S, Electron Microscopy Sciences), 50 ml 10×PBS pH 7.4, and 150 g sucrose. The solution was mixed under low heat until dissolved, and then 6-8 drops of 1 M NaOH were added to bring the pH to 7.4. The volume was then brought to 500 ml with water in a graduated cylinder. The solution was mixed well, placed in aliquots, and frozen.) The slides were fixed for 30 minutes, followed by washing once with PBS. All cells were labeled with an actin stain (Alexa-568 conjugated phalloidin; 1:40; Invitrogen), a membrane dye (DiO; 1:200; Invitrogen), and a DNA stain (Hoechst 33258; 1:10,000; Invitrogen) in 0.1% Triton and 1% goat serum for 2 hours at room temperature. […]"}, "[3]": {"system": "cerebellar granule neurons (CGNs)", "test": "serum deprivation/KCl reduction-induced degeneration", "format": "cell-based, mouse", "conditions": "inhibitor 5 μM; 5 mM KCl, 24 hours", "description": "Kinase inhibitors (inhibitors of GSK3, JNK, EGFR, p38, and CaMKK) were tested for their capacity to protect cultured cerebellar granule neurons (CGNs) following serum deprivation/KCl reduction. Briefly, CGNs isolated from P7 mouse brain were cultured on PDL- and laminin-coated 96-well tissue culture dishes in medium containing serum and potassium (Basal Medium Eagles including 29 mM KCl and 10% FBS) at 37° C. After 24 hours in culture, cells were switched to “deprivation” medium (Basal Medium Eagles including 5 mM KCl), alone or in combination with various small molecule inhibitors as shown in Table 8. After a further 24 hours in culture, the neurons were fixed with 4% paraformaldehyde and stained with a neuronal marker (anti-class III β-Tubulin, Covance). Image acquisition was performed using the ImageXpress automated imaging system (Molecular Devices)."}}}
{"smiles": "O=C(O)c1ccc2c3c1cccc3c(=O)n1c3ccccc3nc21", "note": "[STO-609]", "values": [{"measurement": "IC50", "setting": "[1]", "result": 3000, "unit": "nM"}, {"measurement": "Comments (observations on protection against neurodegeneration upon NGF withdrawal)", "setting": "[2]", "result": "Partial"}, {"measurement": "protection of cerebellar granule neurons from serum deprivation/KCl reduction", "setting": "[3]", "result": "protect cerebellar granule neurons from serum deprivation/KCl reduction"}]}
